# From US9113629B2, “4-amino-6-(4-substituted-phenyl)-picolinates and 6-amino-2-(4-substituted-phenyl)-pyrimidine-4-carboxylates and their use as herbicides” (DOW AGROSCIENCES LLC, priority 2013, dated 2015)
# Like-named read-outs stand apart in the source and are kept apart here.
# Experiments:
# [1] = tested on: Key Grass and Sedge Weeds as well as Grass Crops; experiment: Post-emergent Test II herbicidal activity (Table 6); format: in vivo; conditions: post-emergence, 336 h; for pest or weed control at 70 g/ha: application rate 70 g ai/ha; for pest or weed control at 140 g/ha: application rate 140 g ai/ha
# Summary of the method: (§1)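 Scoring: visual, 0–100% injury at 14 d versus untreated. Treatment: overhead track spray, 187 L/ha, onto plants at the first–second true leaf stage. Growth: greenhouse, ~15 h light, 23–29 °C day, 22–28 °C night.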
# [2] = tested on: Key Broadleaf Weed and Crop Species; experiment: Post-emergent Test II herbicidal activity (Table 5); format: in vivo; conditions: post-emergence, 336 h, 14 days after application
# Summary of the method: as §1
# [3] = CYPES: yellow nutsedge (Cyperus esculentus), read-out: Visual Growth Reduction (%) 14 Days After Application, CYPES
# [4] = DIGSA: crabgrass (Digitaria sanguinalis), read-out: Visual Growth Reduction (%) 14 Days After Application, DIGSA
# [5] = ECHCG: barnyardgrass (Echinochloa crus-galli), read-out: Visual Growth Reduction (%) 14 Days After Application, ECHCG
# [6] = ORYSA: rice (Oryza sativa), read-out: Visual Growth Reduction (%) 14 Days After Application, ORYSA
# [7] = SETFA: giant foxtail (Setaria faberi), read-out: Visual Growth Reduction (%) 14 Days After Application, SETFA
# [8] = SORVU: grain sorghum (Sorghum vulgare), read-out: Visual Growth Reduction (%) 14 Days After Application, SORVU
# [9] = TRZSS (wheat, Triticum aestivum), read-out: Visual Growth Reduction (%) 14 Days After Application, TRZSS
# [10] = ZEAMX: maize, corn (Zea mays), read-out: Visual Growth Reduction (%) 14 Days After Application, ZEAMX
# [11] = ABUTH: velvetleaf (Abutilon theophrasti), 70 g ai/ha, post-emergent, read-out: Visual Growth Reduction (%) 14 Days After Application ABUTH
# [12] = ABUTH: velvetleaf (Abutilon theophrasti), 140 g ai/ha, post-emergent, read-out: Visual Growth Reduction (%) 14 Days After Application ABUTH
# [13] = AMARE: redroot pigweed (Amaranthus retroflexus), 70 g ai/ha, post-emergent, read-out: Visual Growth Reduction (%) 14 Days After Application AMARE
# [14] = AMARE: redroot pigweed (Amaranthus retroflexus), 140 g ai/ha, post-emergent, read-out: Visual Growth Reduction (%) 14 Days After Application AMARE
# [15] = BRSNN: oilseed-rape, canola (Brassica napus), 70 g ai/ha, post-emergent, read-out: Visual Growth Reduction (%) 14 Days After Application BRSNN
# [16] = BRSNN: oilseed-rape, canola (Brassica napus), 140 g ai/ha, post-emergent, read-out: Visual Growth Reduction (%) 14 Days After Application BRSNN
# [17] = CHEAL: lambsquarters (Chenopodium album), 70 g ai/ha, post-emergent, read-out: Visual Growth Reduction (%) 14 Days After Application CHEAL
# [18] = CHEAL: lambsquarters (Chenopodium album), 140 g ai/ha, post-emergent, read-out: Visual Growth Reduction (%) 14 Days After Application CHEAL
# [19] = EPHHL: wild poinsettia (Euphorbia heterophylla), 70 g ai/ha, post-emergent, read-out: Visual Growth Reduction (%) 14 Days After Application EPHHL
# [20] = EPHHL: wild poinsettia (Euphorbia heterophylla), 140 g ai/ha, post-emergent, read-out: Visual Growth Reduction (%) 14 Days After Application EPHHL
# [21] = HELAN: sunflower (Helianthus annuus), 70 g ai/ha, post-emergent, read-out: Visual Growth Reduction (%) 14 Days After Application HELAN
# [22] = HELAN: sunflower (Helianthus annuus), 140 g ai/ha, post-emergent, read-out: Visual Growth Reduction (%) 14 Days After Application HELAN
# [23] = VIOTR: wild pansy (Viola tricolor), 70 g ai/ha, post-emergent, read-out: Visual Growth Reduction (%) 14 Days After Application VIOTR
# [24] = VIOTR: wild pansy (Viola tricolor), 140 g ai/ha, post-emergent, read-out: Visual Growth Reduction (%) 14 Days After Application VIOTR
# [25] = Triticum aestivum, TRZSS (wheat), read-out: Visual Growth Reduction (%) 14 Days After Application, TRZSS
melting point,SMILES,"pest or weed control at 70 g/ha [1, 3] [%]","pest or weed control at 140 g/ha [1, 3] [%]","pest or weed control at 70 g/ha [1, 4] [%]","pest or weed control at 140 g/ha [1, 4] [%]","pest or weed control at 70 g/ha [1, 5] [%]","pest or weed control at 140 g/ha [1, 5] [%]","pest or weed control at 70 g/ha [1, 6] [%]","pest or weed control at 140 g/ha [1, 6] [%]","pest or weed control at 70 g/ha [1, 7] [%]","pest or weed control at 140 g/ha [1, 7] [%]","pest or weed control at 70 g/ha [1, 8] [%]","pest or weed control at 140 g/ha [1, 8] [%]","pest or weed control at 70 g/ha [1, 9] [%]","pest or weed control at 140 g/ha [1, 9] [%]","pest or weed control at 70 g/ha [1, 10] [%]","pest or weed control at 140 g/ha [1, 10] [%]","pest or weed control at 70 g/ha [2, 11] [%]","pest or weed control at 140 g/ha [2, 12] [%]","pest or weed control at 70 g/ha [2, 13] [%]",other results
164 to 168 °C,"C=Cc1c(N)nc(-c2ccc(C#N)cc2F)nc1C(=O)O [Compound 5, 6-Amino-2-(4-cyano-2-fluorophenyl)-5-vinylpyrimidine-4-carboxylic acid]",0 to 29,0 to 29,0 to 29,0 to 29,0 to 29,0 to 29,0 to 29,0 to 29,0 to 29,0 to 29,0 to 29,0 to 29,0 to 29,0 to 29,0 to 29,0 to 29,0 to 29,0 to 29,0 to 29,"pest or weed control at 140 g/ha [2, 14]: 0 to 29%; pest or weed control at 70 g/ha [2, 15]: 0 to 29%; pest or weed control at 140 g/ha [2, 16]: 0 to 29%; pest or weed control at 70 g/ha [2, 17]: 0 to 29%; pest or weed control at 140 g/ha [2, 18]: 0 to 29%; pest or weed control at 70 g/ha [2, 19]: 0 to 29%; pest or weed control at 140 g/ha [2, 20]: 0 to 29%; pest or weed control at 70 g/ha [2, 21]: 85 to 94%; pest or weed control at 140 g/ha [2, 22]: 85 to 94%; pest or weed control at 70 g/ha [2, 23]: 0 to 29%; pest or weed control at 140 g/ha [2, 24]: 0 to 29%"
126 to 128 °C (dec.),COc1c(N)nc(-c2ccc(Br)c(F)c2F)nc1C(=O)O [Compound 8],95 to 100,95 to 100,75 to 84,85 to 94,85 to 94,85 to 94,30 to 44,45 to 59,75 to 84,95 to 100,95 to 100,95 to 100,–,–,60 to 74,85 to 94,–,–,–,"pest or weed control at 70 g/ha [1, 25]: 60 to 74%; pest or weed control at 140 g/ha [1, 25]: 75 to 84%; pest or weed control at 70 g/ha ([2]; ABUTH: velvetleaf (Abutilon theophrasti), application rate 70 g ai/ha, read-out: Visual Growth Reduction (%) 14 Days After Application, ABUTH): 95 to 100%; pest or weed control at 140 g/ha ([2]; ABUTH: velvetleaf (Abutilon theophrasti), application rate 140 g ai/ha, read-out: Visual Growth Reduction (%) 14 Days After Application, ABUTH): 95 to 100%; pest or weed control at 70 g/ha ([2]; AMARE: redroot pigweed (Amaranthus retroflexus), application rate 70 g ai/ha, read-out: Visual Growth Reduction (%) 14 Days After Application, AMARE): 95 to 100%; pest or weed control at 140 g/ha ([2]; AMARE: redroot pigweed (Amaranthus retroflexus), application rate 140 g ai/ha, read-out: Visual Growth Reduction (%) 14 Days After Application, AMARE): 95 to 100%; pest or weed control at 70 g/ha ([2]; BRSNN: oilseed-rape, canola (Brassica napus), application rate 70 g ai/ha, read-out: Visual Growth Reduction (%) 14 Days After Application, BRSNN): 95 to 100%; pest or weed control at 140 g/ha ([2]; BRSNN: oilseed-rape, canola (Brassica napus), application rate 140 g ai/ha, read-out: Visual Growth Reduction (%) 14 Days After Application, BRSNN): 95 to 100%; pest or weed control at 70 g/ha ([2]; CHEAL: lambsquarters (Chenopodium album), application rate 70 g ai/ha, read-out: Visual Growth Reduction (%) 14 Days After Application, CHEAL): 95 to 100%; pest or weed control at 140 g/ha ([2]; CHEAL: lambsquarters (Chenopodium album), application rate 140 g ai/ha, read-out: Visual Growth Reduction (%) 14 Days After Application, CHEAL): 95 to 100%; pest or weed control at 70 g/ha ([2]; EPHHL: wild poinsettia (Euphorbia heterophylla), application rate 70 g ai/ha, read-out: Visual Growth Reduction (%) 14 Days After Application, EPHHL): 95 to 100%; pest or weed control at 140 g/ha ([2]; EPHHL: wild poinsettia (Euphorbia heterophylla), application rate 140 g ai/ha, read-out: Visual Growth Reduction (%) 14 Days After Application, EPHHL): 95 to 100%; pest or weed control at 70 g/ha ([2]; HELAN: sunflower (Helianthus annuus), application rate 70 g ai/ha, read-out: Visual Growth Reduction (%) 14 Days After Application, HELAN): 95 to 100%; pest or weed control at 140 g/ha ([2]; HELAN: sunflower (Helianthus annuus), application rate 140 g ai/ha, read-out: Visual Growth Reduction (%) 14 Days After Application, HELAN): 95 to 100%; pest or weed control at 70 g/ha ([2]; VIOTR: wild pansy (Viola tricolor), application rate 70 g ai/ha, read-out: Visual Growth Reduction (%) 14 Days After Application, VIOTR): 95 to 100%; pest or weed control at 140 g/ha ([2]; VIOTR: wild pansy (Viola tricolor), application rate 140 g ai/ha, read-out: Visual Growth Reduction (%) 14 Days After Application, VIOTR): 95 to 100%"
–,COC(=O)c1nc(-c2cc(F)c(C#N)cc2F)c(F)c(N)c1Cl [Compound 198],60 to 74,60 to 74,0 to 29,0 to 29,0 to 29,0 to 29,0 to 29,0 to 29,0 to 29,0 to 29,0 to 29,0 to 29,30 to 44,45 to 59,0 to 29,0 to 29,60 to 74,75 to 84,60 to 74,"pest or weed control at 140 g/ha [2, 14]: 95 to 100%; pest or weed control at 70 g/ha [2, 15]: 75 to 84%; pest or weed control at 140 g/ha [2, 16]: 75 to 84%; pest or weed control at 70 g/ha [2, 17]: 85 to 94%; pest or weed control at 140 g/ha [2, 18]: 95 to 100%; pest or weed control at 70 g/ha [2, 19]: 45 to 59%; pest or weed control at 140 g/ha [2, 20]: 60 to 74%; pest or weed control at 70 g/ha [2, 21]: 95 to 100%; pest or weed control at 140 g/ha [2, 22]: 95 to 100%; pest or weed control at 70 g/ha [2, 23]: 30 to 44%; pest or weed control at 140 g/ha [2, 24]: 60 to 74%"
